Several values for one entry are separate records, joined by “and”; a condition that tells them apart may be missing. Equal values may be shown once.
What was measured:
[1] = system: RPMI-8226; assay: Antiproliferative activity against human RPMI-8226 assessed as inhibition of cell growth at 1 uM after 8 days measured after Celltiter-Glo assay relative to control; assay type: functional; details: time 8 day; for inhibition at 1 µM: Homo sapiens, RPMI-8226, 192 h
[2] = biological target: CDK8/Cyclin C (Homo sapiens) (UniProt P49336+P24863); assay: Inhibition of human CDK8/Cyc C expressed in Sf21 cells at 1 uM measured after 1 hr by fluorescence plate reader relative to control
[3] = biological target: Cyclin-C/Cyclin-dependent kinase 19 (Homo sapiens) (UniProt Q9BWU1+P24863); assay: Inhibition of humanGST-tagged CDK19/Cyc C expressed in Sf21 cells at 1 uM measured after 1 hr by fluorescence plate reader relative to control

Row | Compound | inhibition (INH) [1] [%] | inhibition [2] | inhibition at 1 µM [1] [%] | inhibition [3]
1 | CS(=O)(=O)O.O=C(/C=C/c1cnccc1-c1cnn(C2CC2)c1)Nc1ccc(CN2CC(F)(F)C2)cc1 | 70 | – | – | –
2 | Cn1cc(-c2ccncc2/C=C/C(=O)Nc2ccc(CN3CC(F)(F)C3)cc2)cn1 | – | 99% | 48 | 99%
3 | Cc1noc(C)c1-c1ccc(NC(=O)/C=C/c2cnccc2-c2cnn(C3CC3)c2)c(F)c1 | – | 103% | 58 | 98%
4 | CC1CN(Cc2ccc(NC(=O)/C=C/c3cnccc3-c3cnn(C)c3)cc2)CCO1 (configuration not stated) | – | 99% | 55 | 97%
5 | Cn1cnc2ccc(-c3c(F)cncc3/C=C/C(=O)Nc3ccc4c(c3)CN(CC(F)(F)F)C4)cc21 | – | 101% | 69 | 96%
6 | COC1CN(Cc2ccc(NC(=O)/C=C/c3cnccc3-c3cnn(C4CC4)c3)cc2)C1 | – | 101% | 59 | 99%
7 | O=C(/C=C/c1cnccc1-c1cnn(C2CC2)c1)Nc1ccc2c(c1)CCN(CC(F)(F)F)C2 | – | 103% | 49 | 98%
8 | Cn1cc(-c2ccncc2/C=C/C(=O)Nc2ccc(CC(C)(C)O)cc2)cn1 | – | 99% | 62 | 101%
9 | O=C(/C=C/c1cnccc1-c1cnn(C2CC2)c1)Nc1ccc2c(c1)CN(CC(F)(F)F)CC2 | – | 98% | 63 | 102%
10 | O=C(/C=C/c1cnccc1-c1ccc2nccn2c1)Nc1ccc(CN2CCOCC2)cc1 | – | 101% | 52 | 100%
11 | O=C(/C=C/c1cnccc1-c1cnn(C2CC2)c1)Nc1ccc2c(c1)CN(C(=O)C(F)(F)F)CC2 | – | 98% | 57 | 98%
12 | CC(C)(O)Cc1ccc(NC(=O)/C=C/c2cncc(F)c2-c2cnn(C3CC3)c2)c(F)c1 | – | 102% | 60 | 99%
13 | Cn1cc(-c2ccncc2/C=C/C(=O)Nc2ccc(CN3CCOCC3)c(O)c2)cn1 | – | 97% | 54 | 99%
14 | O=C(/C=C/c1cnccc1-c1cnn(C2CC2)c1)Nc1ccc(CN2CC(F)(F)C2)cc1.O=C(O)CCC(=O)O | 66 | – | – | –
15 | O=C(/C=C/c1cnccc1-c1ccc2[nH]cnc2c1)Nc1ccc(CN2CCOCC2)cc1 | – | 99% | 66 | 101%
16 | Cn1cc(-c2c(F)cncc2/C=C/C(=O)Nc2ccc(CN3CCOCC3)cc2F)cn1 | – | 98% | 53 | 99%
17 | O=C(/C=C/c1cncc(F)c1-c1cnn(C2CC2)c1)Nc1ccc(CN2CC3CC(C2)O3)cc1 | – | 102% | 59 | 101%
18 | O=C(/C=C/c1cnccc1-c1cnn(C2CC2)c1)Nc1ccc(CN2CC(F)C2)cc1 | – | 107% | 58 | 99%
19 | Cn1cc(-c2ccncc2/C=C/C(=O)Nc2ccc(CN3CCOCC3)cc2F)cn1 | – | 99% | 56 | 97%
20 | Cn1cc(-c2ccncc2/C=C/C(=O)Nc2ccc3c(c2)CCCC3=O)cn1 | – | 96% | 56 | 92%
21 | Cn1cc(-c2ccncc2/C=C/C(=O)Nc2ccc3c(c2)CCN(CC(F)(F)F)C3)cn1 | – | 98% | 65 | 101%

Row | Compound | inhibition (INH) [1] [%] | inhibition [2] | inhibition at 1 µM [1] [%] | inhibition [3]
22 | COCc1ccc(NC(=O)/C=C/c2cnccc2-c2cnn(C)c2)cc1 | – | 100% | 65 | 100%
23 | COC1CN(Cc2ccc(NC(=O)/C=C/c3cncc(F)c3-c3cnn(C4CC4)c3)cc2)C1 | – | 101% | 63 | 100%
24 | O=C(/C=C/c1cnccc1-c1cnsc1)Nc1ccc(CN2CCOCC2)cc1 | – | 90% | 51 | 94%
25 | O=C(/C=C/c1cnccc1-c1cnn(CC2CC2)c1)Nc1ccc(CCN2CCOCC2)cc1 | – | 94% | 58 | 97%
26 | Cn1cc(-c2ccncc2/C=C/C(=O)Nc2cc(F)c(CN3CCOCC3)cc2F)cn1 | – | 94% | 66 | 91%
27 | Cn1cc(-c2ccncc2/C=C/C(=O)Nc2ccc(CNC3CC(F)(F)C3)cc2)cn1 | – | 96% | 63 | 97%
28 | Cn1cc(-c2ccncc2/C=C/C(=O)Nc2ccc3c(c2)OCO3)cn1 | – | 96% | 53 | 94%
29 | Cn1cc(-c2c(F)cncc2/C=C/C(=O)Nc2ccc(CN3CCOCC3)cc2)cn1 | – | 100% | 67 | 100%
30 | CCN1CCc2ccc(NC(=O)/C=C/c3cnccc3-c3cnn(C)c3)cc2C1 | – | 99% | 56 | 95%
31 | Cc1nn(C)cc1-c1ccncc1/C=C/C(=O)Nc1ccc(CCc2nnco2)cc1 | – | 100% | 54 | 98%
32 | CC(C)(O)Cc1ccc(NC(=O)/C=C/c2cnccc2-c2cnn(C3CC3)c2)cc1 | – | 100% | 61 | 103%
33 | CCn1cc(-c2ccncc2CCC(=O)Nc2ccc(CN3CCOCC3)cc2)cn1 | – | 90% | 62 | 85%
34 | Cn1cc(-c2ccncc2/C=C/C(=O)Nc2ccc3ncsc3c2)cn1 | – | 94% | 53 | 90%
35 | Cn1cc(-c2ccncc2/C=C/C(=O)Nc2ccc3cc[nH]c3c2)cn1 | – | 98% | 54 | 93%
36 | Cn1cc(-c2ccncc2/C=C/C(=O)Nc2ccc3c(c2)OCCO3)cn1 | – | 100% | 59 | 97%
37 | CC(=O)N(C)Cc1cc(NC(=O)/C=C/c2cnccc2-c2cnn(C)c2)ccc1C | – | 95% | 49 | 93%
38 | CN(C)CCc1ccc(NC(=O)/C=C/c2cnccc2-c2cnn(C)c2)cc1 | – | 98% | 66 | 98%
39 | Cn1cnc2ccc(-c3ccncc3/C=C/C(=O)Nc3ccc4c(ccn4CC(F)(F)F)c3)cc21 | – | 85% | 63 | 84%
40 | COC(C)c1ccc(NC(=O)/C=C/c2cnccc2-c2cnn(C3CC3)c2)cc1 (configuration not stated) | – | 102% | 62 | 93%
41 | CC1COCCN1Cc1ccc(NC(=O)/C=C/c2cnccc2-c2cnn(C)c2)cc1 (configuration not stated) | – | 100% | 55 | 95%
42 | Cn1cc(-c2ccncc2/C=C/C(=O)Nc2ccc3c(c2)CCO3)cn1 | – | 96% | 55 | 95%

Row | Compound | inhibition (INH) [1] [%] | inhibition [2] | inhibition at 1 µM [1] [%] | inhibition [3]
43 | CC(C)(F)Cc1ccc(NC(=O)/C=C/c2cncc(F)c2-c2cnn(C3CC3)c2)cc1 | – | 99% | 62 | 101%
44 | O=C(/C=C/c1cnccc1-c1cnn(C2CC2)c1)Nc1ccc2c(c1)CN(CC(F)(F)C(F)(F)F)CC2 | – | 97% | 57 | 94%
45 | O=C(/C=C/c1cnccc1-c1cnn(CC2(F)CC2)c1)Nc1ccc(CN2CCOCC2)cc1 | – | 99% | 57 | 101%
46 | Cc1ncc(-c2ccncc2/C=C/C(=O)Nc2ccc(CN3CCOCC3)cc2)s1 | – | 95% | 54 | 95%
47 | Cn1cc(-c2ccncc2/C=C/C(=O)Nc2ccc(CN3CCC4(CC3)COC4)cc2)cn1 | – | 97% | 60 | 97%
48 | COC1CN(Cc2ccc(NC(=O)/C=C/c3cncc(F)c3-c3cnn(C4CC4)c3)c(F)c2)C1 | – | 103% | 63 | 96%
49 | Cn1cc(-c2ccncc2/C=C/C(=O)Nc2ccc(CN3CCOCC3)c(Cl)c2)cn1 | – | 99% | 53 | 99%
50 | Cn1cc(-c2ccncc2/C=C/C(=O)Nc2ccc(Cn3ccnc3)cc2)cn1 | – | 102% | 64 | 98%
51 | O=C(/C=C/c1cnccc1-c1cnn(C2CC2)c1)Nc1ccc(CN2CC(F)(F)C2)cc1F | – | 105% | 51 | 74%
52 | O=C(/C=C/c1cnccc1-c1cnn(C2CC2)c1)Nc1ccc(CN2CC(F)(F)C2)cc1 | – | 102% [middle of 6 runs] | – | 101% (3×) and 100% (3×)
53 | Cn1cc(-c2ccncc2/C=C/C(=O)Nc2ccc(CN3CCC(F)(F)C3)cc2)cn1 | – | 99% | 62 | 100%
54 | COc1ccsc1-c1ccncc1/C=C/C(=O)Nc1ccc(CN2CCOCC2)cc1 | – | 97% | 52 | 100%
55 | CC(=O)n1cc(-c2ccncc2/C=C/C(=O)Nc2ccc(CN3CCOCC3)cc2)cn1 | – | 96% | 65 | 101%
56 | Cn1cc(-c2ccncc2/C=C/C(=O)Nc2ccc3c(ccn3C)c2)cn1 | – | 98% | 55 | 99%
57 | O=C(/C=C/c1cnccc1-c1ccns1)Nc1ccc(CN2CCOCC2)cc1 | – | 101% | 54 | 98%
58 | O=C(/C=C/c1cnccc1-c1cnn(C2CC2)c1)Nc1ccc(CN2CC(F)(F)C2)cc1.O=P(O)(O)O.O=P(O)(O)O | 69 | – | – | –
59 | Cn1cc(-c2ccncc2/C=C/C(=O)Nc2ccc3c(c2)CCN3)cn1 | – | 97% | 58 | 96%
60 | O=C(/C=C/c1cnccc1-c1cnn(C2CC2)c1)Nc1ccc(CN2CC(F)(F)C2)cc1.O=C(O)/C=C/C(=O)O | 70 | – | – | –
61 | O=C(/C=C/c1cnccc1-c1cnn(C2CC2)c1)Nc1ccc(CN2CC(F)(F)C2)cc1.O=S(=O)(O)O | 70 | – | – | –

— ChEMBL document CHEMBL4742385 (2019)
